Molecules are shown by their SMILES.

This series is described as follows: Aqueous-phase analysis of the stability of lycopene (decomposition by light and oxygen). In kind it is physicochemical. The protocol: It is known that light and oxygen cause lycopene to decompose. An aqueous-phase analysis of the stability of lycopene alone and of lycopene in combination with the whey protein according to the invention was carried out. After one day in the aqueous phase for lycopene alone, only 40% of the lycopene remains, whereas, with the whey, virtually 90% of it, remains.

For the molecule `CC(C)=CCC/C(C)=C/C=C/C(C)=C/C=C/C(C)=C/C=C/C=C(C)/C=C/C=C(C)/C=C/C=C(\C)CCC=C(C)C` [lycopene alone, lycopene], for the setting “one day”, the “Lycopene remaining after one day” value was 40%. For the same molecule, the “Lycopene remaining after two days” value (two days) is listed as “virtually completely decomposed”.

Values taken from patent publication US8455004B2, “Primary composition comprising a lipophilic bioactive compound” (Nestec S.A., priority 2000, dated 2013).
